Reference: US8765389B2, “Genetic products which are differentially expressed in tumors and use thereof” (Ganymed Pharmaceuticals AG, priority 2003, dated 2014)
d = 2'-deoxy (DNA); r = 2'-OH (RNA)

Assays:
Type in all cases: cell-based, human
TPTE expression = test: Methylation studies: induceability of TPTE expression by genomic demethylation, real-time RT-PCR; settings: 72 h, 2 μM or 10 μM
Description: Real-time RT-PCR analysis of the TPTE expression in the non-expressing cell lines BT549 and HCT116 following treatment of the cells with 2 μM and 10 μM 5-aza-2′-desoxycytidine, respectively, and in HCT116 cells which are deficient for DNA methyltransferase.
For investigating the induceability of TPTE expression by genomic demethylation, TPTE negative cell lines BT549 (Mamma-Ca) and HCT116 (Colon-Ca) were cultivated for 72 h with 2 μM or 10 μM 5-aza-2′-desoxycytidine. Then, the TPTE expression was quantified by means of real-time RT-PCR. Furthermore, TPTE expression was quantified in DNA methyl transferase (DNMT) deficient HCT116 cells. While DNMT1 (HCT116^DNMT1−/−) or DNMT3b (HCT116^ENMT3b−/−) deficient cells show an almost unchanged methylation pattern when compared to the parental cell line (HCT116^Par), cells in which both DNMTs have been simultaneously deleted (HCT116^DKO) are characterized by an almost complete demethylation of genomic DNA.
A quantitative real-time PCR (40 cycles, initial denaturation 15 min 95° C., 30 sec 94° C., 30 sec 62° C. and 30 sec 72° C.) was performed using specific primers (sense […] (SEQ ID NO: 823); antisense […] (SEQ ID NO: 28)) (FIG. 19). […] The ectopic expression of many known CT genes in tumors is induced by promoter demethylation. […]

[1] = test system: PC-3 prostate carcinoma cells; test: Boyden chamber (Transwell) migration assay of PC-3 cells after TPTE-siRNA electroporation
TPTE mRNA = test: Knock-down of TPTE expression in PC-3 cells using RNAi, real-time RT-PCR; settings: PC-3 cells electroporated with 1 μM siRNA, 24 hours later, quantitative real-time RT-PCR
Description: PC-3 cells were electroporated using 1 μM siRNA specific for TPTE. After 24 h mRNA expression was quantified by real-time RT-PCR. Non-electroporated cells and cells electroporated with DsRed siRNA served as controls.
Expression of TPTE, MS4A12, PCSC and BRCO1 was also quantified using real-time PCR, however, the PCR products were detected using SYBR-Green as reporter dye. The reporter fluorescence of SYBR-Green is suppressed in solution and the dye is only active following binding to double-stranded DNA fragments. The increase of SYBR-Green fluorescence due to the specific amplification by means of GOI-specific primers following each PCR cycle is used for quantification. Quantification of expression of the target gene is performed absolute or relative to the expression of a control gene with constant expression in the tissues to be studied. LDHC expression was calculated by means of the ΔΔ-CT method (PE Biosystems, USA), after normalizing the samples to 18s RNA as “house-keeping” gene. The reactions were carried out in duplex mixtures and determined in triplicate. The QuantiTect SYBR-Green PCR kit (Qiagen, Hilden) was used according to the manufacturer's instructions. cDNA was synthesized using the High Capacity cDNA Archive Kit (PE Biosystems, USA) and hexamer primers according to the manufacturer's information. […]

Q: Which “induction of TPTE expression” value (TPTE expression; BT549 (Mamma-Ca) cells) does the source give for Nc1ncn([C@H]2C[C@H](O)[C@@H](CO)O2)c(=O)n1 [5-aza-2′-desoxycytidine] here?
A: strong induction of TPTE expression

Q: And the “induction of TPTE expression” value (TPTE expression; HCT116 (Colon-Ca) cells)?
A: strong induction of TPTE expression

Q: What does the source list for “TPTE-siRNA: siRNA duplex (SEQ ID NO: 826/827) targeting nucleotides 2043-2061 of the TPTE mRNA sequence (NM_013315) (chain 1 CCCUGCCACAUGUUCAUAUTT; chain 2 AUAUGAACAUGUGGCAGGGTT; sugars from the 5' end r19 d2, backbone not given here)”?
A: cell migration in the Boyden chamber assay ([1]; 48 h after electroporation with 1 μM TPTE-siRNA): Relevant decrease of cell migration; reduction of the migration rate ([1]; Transwell migration assay, compared to untreated cells and cells electroporated with irrelevant siRNA): 70%; decrease in TPTE expression (TPTE mRNA): 70%
